Legend:
SenzaCell cells = details: 24 h stimulation, compared between the two chemicals, FIG. 6
MUTZ-3 cells = details: 24 h stimulation, compared between the two chemicals, FIG. 6

Structure (SMILES): C=CC(=O)OCCO [2-hydroxyethylacrylate]
- SVM prediction value (prediction pattern) (SenzaCell cells): higher prediction value than DNCB
- SVM prediction value (prediction pattern) (MUTZ-3 cells): higher prediction value than DNCB
